“Also recorded” adds a separate entry of the source. Read-outs that look alike come from different tables or passages of the source.
How the values were obtained:
[1] = assay type: physicochemical; conditions: for Percentage acetic acid (% v/v): minimum concentration for acceptable dispersibility and solubility: FCP 2 μmol/ml after acetic acid dispersion; for Visual appearance after dispersion: at the listed acetic acid concentration, FCP 2 μmol/ml
Experimental: In order to limit the concentration of acetic acid downstream in the formulation process and in the final product, the lowest concentration of acetic acid in water to achieve efficient dispersion and maintain visible solubility was determined for each fluorocarbon-linked peptide. When using mannitol as a cryprotectant, it is important to minimize the acetic acid concentration at the lyophilisation stage in order to achieve a stable and amorphous freeze-dried product. The minimum acetic acid concentration to achieve acceptable dispersibility and solubility of the individual fluorocarbon-linked peptides was determined. The final concentration of fluorocarbon-linked peptide after initial acetic acid dispersion was 2 μmol/ml and after dilution with mannitol, 0.250 μmol/ml.

[2] = assay type: physicochemical; conditions: for Further dilution in Mannitol:Water Solubility: FCP 0.167 mM, 1.33% (w/v) mannitol, cloudiness / particulates; for Dispersion in Water Solubility: FCP 1.333 mM in water, vortexed and sonicated, cloudiness (Clear/Cloudy−/Cloudy/Cloudy+) / particulates
Experimental: The solubility of each FCP in water was assessed. Each FCP was dispersed in 300 μl of water to a final concentration of 1.333 mM and vortexed and sonicated. The typical dispersion conditions were four sequences of three minutes bath sonication interspersed by 30 seconds vortexing. After inspection, the resulting solution was diluted with a mannitol solution (a candidate lyophilisation medium, final concentration of peptide 0.167 mM, 1.33% (w/v) mannitol). Solubility was assessed by visual observation of the cloudiness of the resulting dispersion (scaled: Clear/Cloudy−/Cloudy/Cloudy+) and presence of particulates. […]

[3] = assay type: physicochemical; conditions: 1.33% mannitol, 0.22 μm PVDF filter; for YIELD % of each FCP following sterile filtration, MIX 1: MIX 1 dispersed in water; for YIELD % of each FCP following sterile filtration, MIX 2: MIX 2 dispersed in water
[4] = 10 mg net/ml in 10% or 80% acetic acid

SMILES	Percentage acetic acid (% v/v): minimum concentration for acceptable dispersibility and solubility [1] [% v/v]	Visual appearance after dispersion [1]	Physical stability of formulation at less than 80% (v/v) acetic acid ([1]; gel or soluble particulates formed over time)	Further dilution in Mannitol:Water Solubility [2]	Dispersion in Water Solubility [2]	YIELD % of each FCP following sterile filtration, MIX 1 [3] [%]	YIELD % of each FCP following sterile filtration, MIX 2 [3] [%]	Ease of solubility, Cycle 1 Vortexing (10 mg net/ml in 10% (FCP1, 2, 4, 5) or 80% (FCP9, 8) acetic acid)	Ease of solubility, Cycle 1 Sonication [4]	Ease of solubility, Cycle 2 Sonication [4]	Ease of solubility, Cycle 2 Vortexing [4]	Ease of solubility, Cycle 3 Sonication [4]	Ease of solubility, Cycle 3 Vortexing [4]	Visual appearance after dispersion (10 mg net/ml in AcOH 10% or 80%)
CC[C@H](C)[C@H](NC(=O)[C@H](CO)NC(=O)[C@@H](NC(=O)CNC(=O)[C@H](CC(C)C)NC(=O)[C@@H](NC(=O)[C@@H](NC(=O)[C@H](CO)NC(=O)[C@H](CC(C)C)NC(=O)[C@H](CCSC)NC(=O)[C@H](CC(N)=O)NC(=O)[C@H](Cc1ccccc1)NC(=O)[C@H](CCSC)NC(=O)CNC(=O)[C@H](CCSC)NC(=O)[C@H](CCSC)NC(=O)[C@H](CCSC)NC(=O)CNC(=O)[C@@H]1CCCN1C(=O)[C@H](CO)NC(=O)[C@@H](N)CCCCNC(=O)CCC(F)(F)C(F)(F)C(F)(F)C(F)(F)C(F)(F)C(F)(F)C(F)(F)C(F)(F)F)[C@@H](C)O)C(C)C)C(C)C)C(=O)N[C@@H](CC(C)C)C(=O)N[C@@H](CC(N)=O)C(=O)N[C@@H](CC(C)C)C(=O)NCC(=O)N[C@@H](CCC(N)=O)C(=O)N[C@@H](CCCCN)C(=O)N[C@@H](CCCCN)C(=O)N[C@@H](Cc1ccc(O)cc1)C(=O)N[C@H](C(=O)N[C@@H](CCCCN)C(=O)N[C@H](C(=O)N[C@H](C(=O)N[C@@H](Cc1ccc(O)cc1)C(N)=O)[C@@H](C)O)[C@@H](C)O)[C@@H](C)O [FCP6]	80	Clear	physically unstable over time	partially soluble; also recorded: Clear/Particulates	Cloudy−/Particulates	74.1	8.8	–	–	–	–	–	–	–
CC[C@H](C)[C@H](NC(=O)[C@@H]1CCCN1C(=O)[C@H](C)NC(=O)[C@@H](N)CCCCNC(=O)CCC(F)(F)C(F)(F)C(F)(F)C(F)(F)C(F)(F)C(F)(F)C(F)(F)C(F)(F)F)C(=O)N[C@@H](CCSC)C(=O)N[C@@H](Cc1ccccc1)C(=O)N[C@@H](CO)C(=O)N[C@@H](CC(N)=O)C(=O)N[C@@H](CCCCN)C(=O)N[C@@H](CCSC)C(=O)N[C@@H](C)C(=O)N[C@@H](CCCNC(=N)N)C(=O)N[C@@H](CC(C)C)C(=O)NCC(=O)N[C@@H](CCCCN)C(=O)NCC(=O)N[C@@H](Cc1ccc(O)cc1)C(=O)N[C@@H](CCSC)C(=O)N[C@@H](Cc1ccccc1)C(=O)N[C@@H](CCC(=O)O)C(=O)N[C@@H](CO)C(=O)N[C@@H](CCCCN)C(=O)N[C@@H](CO)C(=O)N[C@@H](CCSC)C(=O)N[C@@H](CCCCN)C(=O)N[C@@H](CC(C)C)C(=O)N[C@@H](CCCNC(=N)N)C(=O)N[C@H](C(=O)N[C@@H](CCC(N)=O)C(=O)N[C@H](C(=O)N1CCC[C@H]1C(=O)N[C@@H](C)C(=O)N[C@@H](CCC(=O)O)C(=O)N[C@@H](CCSC)C(=O)N[C@@H](CC(C)C)C(=O)N[C@@H](C)C(N)=O)[C@@H](C)CC)[C@@H](C)O [FCP3]	–	–	–	partially soluble; also recorded: Clear/Particulates	Cloudy−/Particulates	28.6	–	–	–	–	–	–	–	–
CC[C@H](C)[C@H](NC(=O)[C@H](CO)NC(=O)[C@H](CC(C)C)NC(=O)[C@@H](NC(=O)[C@H](CC(N)=O)NC(=O)[C@H](CCCNC(=N)N)NC(=O)[C@H](Cc1ccccc1)NC(=O)[C@H](Cc1c[nH]c2ccccc12)NC(=O)[C@H](CCC(=O)O)NC(=O)[C@@H]1CCCN1C(=O)[C@H](CCC(N)=O)NC(=O)[C@H](CC(N)=O)NC(=O)[C@H](CCCCN)NC(=O)[C@@H](NC(=O)[C@@H](NC(=O)[C@H](Cc1ccc(O)cc1)NC(=O)[C@@H](N)CCCCNC(=O)CCC(F)(F)C(F)(F)C(F)(F)C(F)(F)C(F)(F)C(F)(F)C(F)(F)C(F)(F)F)[C@@H](C)CC)[C@@H](C)O)[C@@H](C)CC)C(=O)N[C@@H](C)C(=O)N1CCC[C@H]1C(=O)N[C@H](C(=O)N[C@@H](CCSC)C(=O)N[C@@H](Cc1ccccc1)C(=O)N[C@@H](CO)C(=O)N[C@@H](CC(N)=O)C(=O)N[C@@H](CCCCN)C(=O)N[C@@H](CCSC)C(=O)N[C@@H](C)C(=O)N[C@@H](CCCNC(=N)N)C(=O)N[C@@H](CC(C)C)C(=O)NCC(=O)N[C@@H](CCCCN)C(=O)NCC(=O)N[C@@H](Cc1ccc(O)cc1)C(=O)N[C@@H](CCSC)C(=O)N[C@@H](Cc1ccccc1)C(=O)N[C@@H](CCC(=O)O)C(N)=O)[C@@H](C)CC [FCP10]	–	–	–	partially soluble; also recorded: Clear/Particulates	Cloudy−/Particulates	–	90.7	–	–	–	–	–	–	–
CC[C@H](C)[C@H](NC(=O)[C@H](CCCNC(=N)N)NC(=O)[C@H](CCSC)NC(=O)CNC(=O)[C@H](CO)NC(=O)CNC(=O)[C@H](CCCNC(=N)N)NC(=O)[C@@H](NC(=O)[C@H](CC(N)=O)NC(=O)[C@@H](NC(=O)[C@@H](NC(=O)[C@H](CC(C)C)NC(=O)[C@H](CO)NC(=O)[C@H](CO)NC(=O)[C@H](Cc1ccccc1)NC(=O)[C@H](CCC(N)=O)NC(=O)[C@H](CCSC)NC(=O)[C@H](CCCNC(=N)N)NC(=O)[C@H](CO)NC(=O)[C@H](CCC(N)=O)NC(=O)[C@@H](N)CCCCNC(=O)CCC(F)(F)C(F)(F)C(F)(F)C(F)(F)C(F)(F)C(F)(F)C(F)(F)C(F)(F)F)[C@@H](C)O)C(C)C)C(C)C)C(=O)N[C@@H](CC(C)C)C(=O)N[C@H](C(=O)N[C@@H](CCCNC(=N)N)C(=O)NCC(=O)N[C@@H](CC(N)=O)C(=O)N[C@@H](CO)C(=O)N1CCC[C@H]1C(=O)N[C@H](C(=O)N[C@@H](Cc1ccccc1)C(=O)N[C@@H](CC(N)=O)C(=O)N[C@@H](Cc1ccc(O)cc1)C(=O)N[C@@H](CC(N)=O)C(=O)N[C@@H](CCCCN)C(N)=O)C(C)C)C(C)C [FCP11]	–	–	–	fully soluble; also recorded: Clear/No Particulates	fully soluble; also recorded: Clear/No Particulates	–	49.4	–	–	–	–	–	–	–
CC[C@H](C)[C@H](NC(=O)[C@@H]1CCCN1C(=O)[C@H](C)NC(=O)[C@@H](N)CCCCNC(=O)CCC(F)(F)C(F)(F)C(F)(F)C(F)(F)C(F)(F)C(F)(F)C(F)(F)C(F)(F)F)C(=O)N[C@@H](CCSC)C(=O)N[C@@H](Cc1ccccc1)C(=O)N[C@@H](CO)C(=O)N[C@@H](CC(N)=O)C(=O)N[C@@H](CCCCN)C(=O)N[C@@H](CCSC)C(=O)N[C@@H](C)C(=O)N[C@@H](CCCNC(=N)N)C(=O)N[C@@H](CC(C)C)C(=O)NCC(=O)N[C@@H](CCCCN)C(=O)NCC(=O)N[C@@H](Cc1ccc(O)cc1)C(=O)N[C@@H](CCSC)C(=O)N[C@@H](Cc1ccccc1)C(=O)N[C@@H](CCC(=O)O)C(=O)N[C@@H](CO)C(=O)N[C@@H](CCCCN)C(=O)N[C@@H](CCCNC(=N)N)C(=O)N[C@@H](CCSC)C(=O)N[C@@H](CCCCN)C(=O)N[C@@H](CC(C)C)C(=O)N[C@@H](CCCNC(=N)N)C(=O)N[C@H](C(=O)N[C@@H](CCC(N)=O)C(=O)N[C@H](C(=O)N1CCC[C@H]1C(=O)N[C@@H](C)C(=O)N[C@@H](CCC(=O)O)C(=O)N[C@@H](CCSC)C(=O)N[C@@H](CC(C)C)C(=O)N[C@@H](C)C(N)=O)[C@@H](C)CC)[C@@H](C)O [FCP2]	10	Clear	–	fully soluble; also recorded: Clear/No Particulates	Cloudy−/No Particulates	–	97.3	Clear	Clear	Clear	Clear	Clear	Clear	Clear
